Assay results taken from patent publication US8318781B2, “G-protein-conjugated receptor agonist” (Japan Science and Technology Agency, priority 2007, dated 2012).
Where two headings read alike, the source gives them in different places.

Assays:
Assay type in all cases: cell-based
[1] = biological target: T1, human GPR120 (hGPR120) (Homo sapiens, UniProt Q5NUL3); assay: Determination of intracellular Ca2+ concentration (FLIPR), cell line TXGPR120; conditions: for agonistic activity for hGPR120 (in words): cells in which GPR120 has been transgenically expressed; for [Ca^2+]/GPR120 10 μM (ratio vs. LA): relative fluorescence intensity vs LA at 10 μM; for selectivity between GPR40 and GPR120 (in words), from Tables 3 and 4: GPR40 versus GPR120, Ca2+ and ERK results
T1 construct: expressed in transfected cells; doxycycline-inducible expression vector
T1 sequence (Q5NUL3 1-361): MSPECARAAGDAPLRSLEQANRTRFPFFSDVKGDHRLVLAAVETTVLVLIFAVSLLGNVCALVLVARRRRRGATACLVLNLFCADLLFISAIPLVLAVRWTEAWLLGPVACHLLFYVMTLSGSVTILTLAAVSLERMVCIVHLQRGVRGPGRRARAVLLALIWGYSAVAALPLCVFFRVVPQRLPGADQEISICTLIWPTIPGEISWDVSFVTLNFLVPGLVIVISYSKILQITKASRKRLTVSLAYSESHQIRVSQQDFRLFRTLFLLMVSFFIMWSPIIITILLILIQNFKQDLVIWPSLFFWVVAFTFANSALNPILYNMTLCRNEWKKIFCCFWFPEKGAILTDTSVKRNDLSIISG
Protocol: (§1) (1) In this test, The cell lines TXGPR40, TXGPR120 and GPR120/Flp-in were plated onto a collagen-coated black 96-well plate in 2×10^5 cells/well. The 96-well plates containing the cells were centrifuged and treated with Doxycycline (final concentration 10 μg/mL), incubated in a CO2 incubator for 21 hours, then used for assay.
(§2) (2) The ligand used in this test includes NCP04, NCP14, NCG20, NCG21, NCG22, NCG23, NCP02, NCP03, NCP05, NCP06, NCG14, NCG17, NCG19, NCG28, NCG29, NCG30, NCG31, NCG34, NCG35, NCG37, NCG38, NCG44, NCG45, NCG46, and NCG54. Each ligand was dissolved in DMSO and adjusted to the concentration of 10 mM, then diluted with Hanks' Balanced Salt Solution (pH 7.4) containing 20 mM HEPES (referred to as FLIPR buffer hereinafter) to the final concentration of 1 to 100 μM. 1% DMSO was used as the negative control, and LA was used as the positive control.
(§3) The ligands and controls were placed in different 96-well plates from the plates for the cells.
(§4) (3) The 96-well plate containing the cells was removed from the CO2 incubator. A fluorescent dye prepared in a twofold higher concentration (Ca Assay Kit Component A diluted with FLIPR Buffer) was added in 50 μL/well, then allowed to stand in the dark at room temperature for one hour.
(§5) (4) After one hour, the 96-well plate containing the cells and the 96-well plate in which ligands and controls were prepared were set on FLIPR (Fluorometric Imaging Plate Reader) for determination.
(§6) (5) Fluorometry using FLIPR was carried out at a laser output of 1.0 W for five minutes. […] after the start of the determination, the ligand (25 μL) was added dropwise to the cell plate at a rate of 50 μL/sec. The intensity of fluorescence was automatically digitized by the application program installed in the FLIPR from the image taken by the CCD camera (with exposure time of 0.40 sec). The interval of data sampling was one second for the initial one minute after the start of operation, and six seconds for the subsequent four minutes.
(§7) (6) The maximum fluorescence intensity was obtained from the data showing the change in the fluorescence intensity over time observed in each well. The maximum fluorescence intensity was plotted against ligand concentration, and pEC50 was calculated. The ratio of the fluorescence intensity for each ligand to LA at 10 μM was calculated as the relative intensity of each ligand.

[2] = biological target: T2, human GPR40 (hGPR40) (Homo sapiens, UniProt O14842); assay: Determination of intracellular Ca2+ concentration (FLIPR), cell line TXGPR40; conditions: for [Ca^2+]/GPR40 10 μM (ratio vs. LA): relative fluorescence intensity vs LA at 10 μM; for agonistic activity for GPR40 (in words): cells in which GPR40 has been transgenically expressed
T2 construct: expressed in transfected cells; doxycycline-inducible expression vector
Protocol: as §1, §2, §3, §4, §5, §6, §7

[3] = biological target: T1, human GPR120 (hGPR120); assay: ERK assay, screening for GPR120 ligands in cell line TXGPR120;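 on ERK/GPR120 10 μM: signals normalized between DMSO and PMA controls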; conditions: for ERK/GPR120 10 μM: ligand 10 μM; for ERK/GPR120 10 μM / ERK/GPR120 100 μM / ERK activation for GPR120 (in words): TXGPR120 cells; for ERK/GPR120 10 μM / ERK/GPR120 100 μM: class relative to LA; for ERK/GPR120 100 μM: ligand 100 μM; for ERK activation for GPR120 (in words): FIGS. 5-8
Protocol: (§8) This Test 1 was carried out by using the following materials and methods.
(§9) (1) In this test, the cell lines TXGPR40 and TXGPR120 were plated in 35-mm dishes in 5×10^5 cells/per dish.
(§10) Each ligand was dissolved in DMSO, diluted tenfold with the medium to make the total amount of 100 μl. DMSO was used as the negative control, and PMA (phorbol-12-myristate-13-acetate) was used as the positive control.
(§11) (3) The medium was removed from the dish of the cell to reduce the total amount of liquid to 0.9 ml.
(§12) (4) The ligand solution was added dropwise to the cell solution, and dispersed by gently shaking the dish, and allowed to react at room temperature.
(§13) (5) After 5 minutes of reaction, the medium was discarded, and the remaining medium on the dish was removed on ice using an aspirator.
(§14) (6) 150 μl of Lysis buffer (50 mM HEPES (pH 7.0), 150 mM NaCl, 10% glycerol, 1% NonidetP-40, 2 mM MgCl2, 1 mM EDTA, 100 mM NaF, 10 mM sodium phosphate, 1 mM Na3VO4, 20 mM β-glycerophosphate, and Proteinase inhibitor) were added, then the cells were collected using a cell scraper.
(§15) (1) The crude enzyme solution mixed with SDS Sample Buffer was subjected to ultrasonication with a sonifier, then incubated at 90° C. for five minutes.
(§16) (2) The mixture was vortexed and centrifuged at 15,000 rpm for five minutes at 4° C.
(§17) (3) The supernatant of the centrifuged sample was applied to two 7.5% acrylamide gel slabs placed in an electrophoresis tank filled with 1×SDS-PAGE Running Buffer (25 mM Tris, 0.2 M Glycin, and 1% SDS). Electrophoresis was carried out under a constant current of 40 mA for about 80 to 90 minutes.
(§18) (1) A PVDF membrane cut in the same size as the gel slab was immersed in methanol for about 15 seconds and then shaken in Transfer Buffer C solution (25 mM Tris, 0.02% SDS, 2% methanol and 40 mM 6-aminohexanoic acid) at room temperature to swell for 15 minutes. Filter paper for blotting was cut into a 10-cm square.
(§19) (2) On the blotting apparatus were placed sequentially two pieces of filter paper immersed in A solution (0.3 M Tris, 0.02% SDS and 2% methanol), two pieces of filter paper immersed in B solution (25 mM Tris, 0.02% SDS and 2% methanol), and the membrane thereon. The gel slab after electrophoresis, and finally two pieces of filter paper immersed in C solution was placed thereon, and the apparatus was closed.
(§20) (3) The protein was transferred to the membrane at 15 V for 30 minutes.
(§21) (1) The following procedure was all carried out at room temperature. After the protein transfer, the membrane was placed into a vial containing 1×TTBS (0.2 M Tris, 1.5 M NaCl, 0.2% Tween 20) and washed for 15 minutes.
(§22) (2) TTBS was discarded, and about 10 ml of Block Ace was added and blocked on a shaker for one hour.
(§23) (1) The primary antibodies (p44/42 MAP Kinase Antibody and Phospho-p44/42 MAP Kinase Antibody) were each diluted 1000-fold with TTBS.
(§24) (2) After blocking, the Block Ace solution was removed, the solution of the primary antibody was added and allowed to react on the shaker for two hours.
(§25) (1) The secondary antibody (Anti-rabbit Ig, Horseradish Peroxidase linked F(ab′)2 fragments) was diluted 5000-fold with TTBS.
(§26) (2) The primary antibody solution was removed and the membrane was washed three times on the shaker in TTBS for five to ten minutes each.
(§27) (3) TTBS was removed and the solution of secondary antibody was added and left for 1 hour on the shaker.
(§28) (1) 2 ml each of Detection Reagent 1 and Detection Reagent 2 from ECL kit were mixed together on ice.
(§29) (2) The solution of secondary antibody was removed from the membrane reacted with the secondary antibody and then washed three times on the shaker in TTBS for five minutes each.
(§30) (3) The liquid was thoroughly removed from the membrane, which was then placed in a plastic bag, and 2 ml of the Detection Reagent mixture was added per each membrane.
(§31) (4) The membrane was kept in contact with a film in the cassette for one to five minutes, and the film was developed using an automatic developing machine.

[4] = biological target: T1, human GPR120 (hGPR120); assay: Determination of intracellular Ca2+ concentration (FLIPR), cell line GPR120/Flp-in; conditions: for [Ca^2+]/GPR120/Flp-In 10 μM (ratio vs. LA): relative fluorescence intensity vs LA at 10 μM
Protocol: as §1, §2, §3, §4, §5, §6, §7

[5] = biological target: T2, human GPR40 (hGPR40); assay: ERK assay, screening for GPR40 ligands in cell line TXGPR40; conditions: TXGPR40 cells; for ERK/GPR40 10 μM: ligand 10 μM; for ERK/GPR40 10 μM / ERK/GPR40 100 μM: class relative to LA; for ERK/GPR40 100 μM: ligand 100 μM
Protocol: as §8, §9, §10, §11, §12, §13, §14, §15, §16, §17, §18, §19, §20, §21, §22, §23, §24, §25, §26, §27, §28, §29, §30, §31

[6] = GPR120/Flp-in cells, maximum fluorescence intensity vs ligand concentration, read-out: [Ca^2+]/GPR120/Flp-In pEC50 (converted)
[7] = TXGPR40 cells, maximum fluorescence intensity vs ligand concentration, read-out: [Ca^2+]/GPR40 pEC50 (converted)

T2 sequence (O14842 whole entry): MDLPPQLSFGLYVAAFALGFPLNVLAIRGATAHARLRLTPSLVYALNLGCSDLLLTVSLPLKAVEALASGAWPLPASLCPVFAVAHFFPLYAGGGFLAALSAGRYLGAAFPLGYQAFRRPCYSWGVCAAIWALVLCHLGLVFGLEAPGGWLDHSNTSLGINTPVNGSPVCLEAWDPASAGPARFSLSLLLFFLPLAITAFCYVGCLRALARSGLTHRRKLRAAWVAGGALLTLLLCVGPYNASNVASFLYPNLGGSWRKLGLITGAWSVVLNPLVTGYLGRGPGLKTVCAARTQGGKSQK

agonistic activity for hGPR120 (in words) [1]	[Ca^2+]/GPR120 10 μM (ratio vs. LA) ([1]; TXGPR120 cells)	[Ca^2+]/GPR40 10 μM (ratio vs. LA) ([2]; TXGPR40 cells)	ERK/GPR120 10 μM [3]	ERK/GPR120 100 μM [3]	EC50 [4, 6]	[Ca^2+]/GPR120/Flp-In 10 μM (ratio vs. LA) ([4]; GPR120/Flp-in cells)	EC50 [1]	EC50 [2]	agonistic activity for GPR40 (in words) [2]	ERK activation for GPR40 (in words) ([5]; FIGS. 1-4)	ERK/GPR40 10 μM [5]	ERK/GPR40 100 μM [5]	ERK activation for GPR120 (in words) [3]	EC50 [4]	EC50 ([1]; TXGPR120 cells, maximum fluorescence intensity vs ligand concentration, read-out: [Ca^2+]/GPR120 pEC50 (converted))	EC50 [2, 7]	selectivity for GPR120 in ERK assay (in words) ([3]; GPR120 versus GPR40)	SMILES	selectivity between GPR40 and GPR120 (in words), from Tables 3 and 4 [1]
exhibit a similar effect	0.01	0.01	+ (+ denotes 0 to 100% of LA)	++ (++ denotes 50 to 100% of LA)	10 µM	0.65												O=C(O)CCCc1ccc(OCCN(c2cccnc2)c2ccccn2)cc1 [NCG45]	
exhibit a similar effect	0.61	0.32	+++ (+++ denotes a higher value than LA)	+++ (+++ denotes a higher value than LA)		0.73	17 µM	19.1 µM	showed a specific reactivity	strongly activated ERK	+++ (+++ denotes a higher value than LA)	+++ (+++ denotes a higher value than LA)	strongly activate ERK	6.92 µM				O=C(O)CCCc1ccc(OCCN(c2ccccc2)c2nc3ccccc3s2)cc1 [NCG31]	
exhibit a similar effect	0.56	0.28	+++ (+++ denotes a higher value than LA)	+++ (+++ denotes a higher value than LA)	3.47 µM	0.91						+ (+ denotes 0 to 100% of LA)	strongly activate ERK		17.8 µM	16.2 µM	selective for GRP120	COc1cccc(N(CCOc2ccc(CCCC(=O)O)cc2)c2ccccc2)n1 [NCG37]	acting relatively mildly for GPR40 but acting strongly for GPR120
exhibit a similar effect	0.04	1.29			17 µM	0.33			showed a specific reactivity		++ (++ denotes 50 to 100% of LA)					2.88 µM		CS(=O)(=O)NC(=O)CCc1ccc(NCc2cccc(Oc3ccccc3)c2)cc1 [NCG19]	selective agonists for GPR40
